Each block holds one molecule with its values, some of them ahead of it. Where a SMILES comes first, the peptide text is derived from it. Bridges are numbered along the chain shown (N, C = ends). [ ]: non-standard residue; d: D form. Aic = NC1(C(=O)O)Cc2ccccc2C1; dOrn = NCCC[C@@H](N)C(=O)O; Orn = NCCC[C@H](N)C(=O)O
Columns and labels:
[1] = target: Angiotensin-converting enzyme (Homo sapiens, UniProt P12821); experiment: Inhibition of angiotensin-converting enzyme (unknown origin)
Neprilysin [2] = target: Neprilysin (Homo sapiens, UniProt P08473); experiment: Inhibition of neutral endopeptidase (unknown origin)
[3] = target: T1, Angiotensin-converting enzyme (Oryctolagus cuniculus, UniProt P12822); experiment: Inhibition of rabbit lung angiotensin-converting enzyme; type: tissue-based
T1 sequence (P12822 whole entry): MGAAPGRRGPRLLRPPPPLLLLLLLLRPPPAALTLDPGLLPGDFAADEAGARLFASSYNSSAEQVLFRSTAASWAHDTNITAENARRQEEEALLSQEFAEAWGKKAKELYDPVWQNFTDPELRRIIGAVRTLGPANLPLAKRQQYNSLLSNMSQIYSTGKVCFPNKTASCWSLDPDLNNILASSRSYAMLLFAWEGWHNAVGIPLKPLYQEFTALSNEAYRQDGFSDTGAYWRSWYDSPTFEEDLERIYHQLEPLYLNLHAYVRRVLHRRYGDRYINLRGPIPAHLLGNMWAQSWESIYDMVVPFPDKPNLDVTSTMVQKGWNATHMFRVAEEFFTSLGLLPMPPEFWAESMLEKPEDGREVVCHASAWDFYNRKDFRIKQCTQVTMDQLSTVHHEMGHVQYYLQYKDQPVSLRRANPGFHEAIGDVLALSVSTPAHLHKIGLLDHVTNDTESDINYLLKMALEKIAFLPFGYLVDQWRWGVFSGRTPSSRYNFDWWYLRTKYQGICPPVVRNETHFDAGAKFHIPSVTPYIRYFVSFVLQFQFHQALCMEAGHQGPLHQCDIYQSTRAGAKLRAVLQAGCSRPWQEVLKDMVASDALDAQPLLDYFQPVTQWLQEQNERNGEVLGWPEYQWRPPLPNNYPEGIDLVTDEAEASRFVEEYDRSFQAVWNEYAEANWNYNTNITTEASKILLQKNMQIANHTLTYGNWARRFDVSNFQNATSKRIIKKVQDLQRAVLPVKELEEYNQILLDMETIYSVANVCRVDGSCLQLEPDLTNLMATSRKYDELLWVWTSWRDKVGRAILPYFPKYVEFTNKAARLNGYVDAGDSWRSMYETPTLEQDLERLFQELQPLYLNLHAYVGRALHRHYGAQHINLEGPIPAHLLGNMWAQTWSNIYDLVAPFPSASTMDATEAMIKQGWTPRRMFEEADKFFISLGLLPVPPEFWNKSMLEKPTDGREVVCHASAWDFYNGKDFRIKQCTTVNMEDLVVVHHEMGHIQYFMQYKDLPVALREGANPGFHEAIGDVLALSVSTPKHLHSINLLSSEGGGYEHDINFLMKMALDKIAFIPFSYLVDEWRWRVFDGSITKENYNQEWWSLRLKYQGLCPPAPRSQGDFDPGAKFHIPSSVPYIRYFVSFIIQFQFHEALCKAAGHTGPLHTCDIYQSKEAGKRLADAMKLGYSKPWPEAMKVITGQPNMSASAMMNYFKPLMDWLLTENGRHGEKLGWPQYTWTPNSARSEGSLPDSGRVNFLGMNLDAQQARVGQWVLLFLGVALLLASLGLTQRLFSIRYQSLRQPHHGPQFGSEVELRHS

[4] = target: T1, Angiotensin-converting enzyme; experiment: Binding affinity to angiotensin-converting enzyme in rabbit lung assessed as inhibition constant; type: tissue-based
Neprilysin [5] = target: T2, Neprilysin (Rattus norvegicus, UniProt P07861); experiment: Binding affinity to rat kidney neutral endopeptidase; type: tissue-based
T2 sequence (P07861 whole entry): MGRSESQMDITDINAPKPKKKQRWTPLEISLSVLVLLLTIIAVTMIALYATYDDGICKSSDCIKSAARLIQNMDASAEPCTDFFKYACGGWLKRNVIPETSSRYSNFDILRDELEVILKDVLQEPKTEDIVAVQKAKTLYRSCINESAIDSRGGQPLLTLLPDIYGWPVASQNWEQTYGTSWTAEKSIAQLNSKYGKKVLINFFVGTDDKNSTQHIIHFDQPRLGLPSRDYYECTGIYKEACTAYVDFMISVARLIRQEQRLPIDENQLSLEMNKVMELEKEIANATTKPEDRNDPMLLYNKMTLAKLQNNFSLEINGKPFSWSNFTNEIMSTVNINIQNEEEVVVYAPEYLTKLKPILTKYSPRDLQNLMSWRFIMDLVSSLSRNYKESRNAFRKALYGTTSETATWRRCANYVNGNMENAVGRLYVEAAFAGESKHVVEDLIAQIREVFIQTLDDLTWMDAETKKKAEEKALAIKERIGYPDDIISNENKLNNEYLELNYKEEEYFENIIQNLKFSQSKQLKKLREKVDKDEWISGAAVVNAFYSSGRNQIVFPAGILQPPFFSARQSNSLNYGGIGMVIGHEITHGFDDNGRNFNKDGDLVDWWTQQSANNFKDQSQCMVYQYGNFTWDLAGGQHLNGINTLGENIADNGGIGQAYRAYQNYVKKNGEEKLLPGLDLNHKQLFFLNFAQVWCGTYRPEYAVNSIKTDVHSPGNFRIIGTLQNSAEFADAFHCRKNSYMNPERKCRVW

[6] = target: Somatostatin receptor type 1 (Homo sapiens, UniProt P30872); experiment: Inhibition of human somatostatin receptor type 1
[7] = target: Somatostatin receptor type 3 (Homo sapiens, UniProt P32745); experiment: Inhibition of human somatostatin receptor type 3
[8] = target: Somatostatin receptor type 4 (Homo sapiens, UniProt P31391); experiment: Inhibition of human somatostatin receptor type 4
[9] = target: Somatostatin receptor type 5 (Homo sapiens, UniProt P35346); experiment: Inhibition of human somatostatin receptor type 5
[10] = target: Somatostatin receptor type 2 (Homo sapiens, UniProt P30874); experiment: Inhibition of human somatostatin receptor type 2
[11] = target: T3, Somatostatin receptor type 5 (Rattus norvegicus, UniProt P30938); experiment: Inhibition of rat somatostatin receptor type 5
T3 sequence (P30938 whole entry): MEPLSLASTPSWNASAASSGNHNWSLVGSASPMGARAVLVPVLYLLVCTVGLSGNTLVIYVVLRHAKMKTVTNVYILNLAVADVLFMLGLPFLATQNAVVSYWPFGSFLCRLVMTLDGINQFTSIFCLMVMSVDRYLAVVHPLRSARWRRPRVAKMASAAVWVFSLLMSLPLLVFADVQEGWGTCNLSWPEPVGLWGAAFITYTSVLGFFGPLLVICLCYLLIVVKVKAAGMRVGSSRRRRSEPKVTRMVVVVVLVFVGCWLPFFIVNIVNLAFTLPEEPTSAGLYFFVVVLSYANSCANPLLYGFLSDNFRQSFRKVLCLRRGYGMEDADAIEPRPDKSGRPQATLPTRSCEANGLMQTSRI

Renin = target: T4, Renin (Homo sapiens, UniProt P00797); experiment: Inhibition of human plasma renin; type: cell-free
T4 sequence (P00797 whole entry): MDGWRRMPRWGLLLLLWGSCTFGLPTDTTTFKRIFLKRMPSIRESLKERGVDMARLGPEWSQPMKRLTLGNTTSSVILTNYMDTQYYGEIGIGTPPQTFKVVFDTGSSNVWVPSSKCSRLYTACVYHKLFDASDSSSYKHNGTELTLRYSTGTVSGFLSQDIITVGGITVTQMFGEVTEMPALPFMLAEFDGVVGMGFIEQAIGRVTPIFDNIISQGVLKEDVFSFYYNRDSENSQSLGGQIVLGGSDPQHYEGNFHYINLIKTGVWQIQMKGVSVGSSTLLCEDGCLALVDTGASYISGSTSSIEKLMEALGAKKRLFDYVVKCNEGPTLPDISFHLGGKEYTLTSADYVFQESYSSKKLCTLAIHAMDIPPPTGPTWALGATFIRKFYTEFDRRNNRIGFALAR

[12] = Inhibition of angiotensin-converting enzyme (unknown origin)
[13] = target: T5, Delta-type opioid receptor (Homo sapiens, UniProt P41143); experiment: Binding affinity to delta opioid receptor (unknown origin) assessed as inhibition constant
Mu-type opioid receptor [14] = target: T6, Mu-type opioid receptor (Homo sapiens, UniProt P35372); experiment: Binding affinity to mu opioid receptor (unknown origin) assessed as inhibition constant
[15] = target: T5, Delta-type opioid receptor; experiment: Inhibition of DOR (unknown origin)
Mu-type opioid receptor [16] = target: T6, Mu-type opioid receptor; experiment: Inhibition of MOR (unknown origin)
Mus musculus = species: Mus musculus; experiment: Inhibition of electrically evoked mouse vas deferens contraction; type: functional

- IC50 [1]: 14 nM
- IC50 (Neprilysin [2]): 3.9 nM
SMILES: C[C@H](NC(=O)[C@@H](CS)Cc1ccccc1)C(=O)N1Cc2ccccc2C[C@H]1C(=O)O

- IC50 [1]: 7.8 nM
- IC50 (Neprilysin [2]): 2.6 nM
SMILES: C[C@H](NC(=O)[C@@H](CS)Cc1ccccc1)C(=O)N1c2ccccc2C[C@H]1C(=O)O

- IC50 [3]: 5.2 nM
SMILES: O=C(O)[C@H](CCc1ccccc1)N[C@H]1CCc2cccc3c2N(C1=O)[C@H](C(=O)O)C3

- Ki [4]: 0.11 nM
- Ki (Neprilysin [5]): 0.08 nM
SMILES: O=C(N[C@H]1Cc2ccccc2[C@H]2CCC[C@@H](C(=O)O)N2C1=O)[C@@H](S)Cc1ccccc1

- IC50 [6]: > 1000 nM
- IC50 [7]: > 1000 nM
- IC50 [8]: > 1000 nM
- IC50 [9]: > 1000 nM
- IC50 [10]: > 1000 nM
SMILES: CC(=O)N[C@@H](Cc1ccccc1)C(=O)N[C@]1(C)Cc2c([nH]c3ccccc23)CN([C@@H](CCCCN)C(=O)N[C@H](C(N)=O)[C@@H](C)O)C1=O

- IC50 [6]: 253 nM
- IC50 [11]: 217 nM
- IC50 [8]: 36 nM
SMILES: CC(=O)N[C@@H](Cc1ccccc1)C(=O)N[C@@H]1Cc2c([nH]c3ccccc23)CN([C@@H](CCCCN)C(=O)N[C@H](C(N)=O)[C@@H](C)O)C1=O

- Ki [4]: 4.5 nM
- Ki (Neprilysin [5]): 0.07 nM
SMILES: O=C(N[C@H]1Cc2ccccc2[C@H]2CCC[C@@H](C(=O)O)N2C1=O)[C@H](S)Cc1ccccc1

- IC50 (Renin): 0.84 nM
SMILES: CCCCNC(=O)[C@@H](C[C@H](O)[C@H](CC1CCCCC1)NC(=O)[C@H](CCCC)NC(=O)[C@H](Cc1ccccc1)NC(C)=O)C(C)C

- IC50 [12]: 58000 nM
SMILES: CC(CS)C(=O)N1CCc2ccccc2C1C(=O)O (stereo not drawn)

- IC50 [12]: 14000 nM
SMILES: CC(CS)C(=O)N1Cc2ccccc2C1C(=O)O (stereo not drawn)

- IC50 [6]: > 1000 nM
- IC50 [7]: > 1000 nM
- IC50 [8]: > 1000 nM
- IC50 [9]: > 1000 nM
- IC50 [10]: > 1000 nM
SMILES: CC(=O)N[C@@H](Cc1ccccc1)C(=O)N[C@@H](Cc1c[nH]c2ccccc12)C(=O)N[C@@H](CCCCN)C(=O)N[C@H](C(N)=O)[C@@H](C)O (Ac-FWKT-NH2)

SMILES: NC(=O)[C@@H]1CCC(=O)NCCC[C@H](NC(=O)[C@@H](N)Cc2ccc(O)cc2)C(=O)NC2(Cc3ccccc3C2)C(=O)N1 (H-Y[Orn][Aic]E-NH2; lactam 2-4)
- Ki [13]: 209 nM
- Ki (Mu-type opioid receptor [14]): 4.21 nM

SMILES: C[C@@H](NC(=O)[C@@H](N)Cc1ccc(O)cc1)C(=O)N[C@@H](Cc1ccccc1)C(=O)NCC(N)=O (H-Y[dA]FG-NH2)
- IC50 [15]: 1250 nM
- IC50 (Mu-type opioid receptor [16]): 36.7 nM

SMILES: CC(C)[C@H](NC(=O)[C@H](CC(=O)O)NC(=O)C1(NC(=O)[C@@H](C)NC(=O)[C@@H](N)Cc2ccc(O)cc2)Cc2ccccc2C1)C(=O)N[C@H](C(=O)NCC(N)=O)C(C)C (H-Y[dA][Aic]DVVG-NH2)
- Ki [13]: 4.96 nM
- IC50 (Mus musculus): 0.08 nM

SMILES: NC(=O)[C@@H]1CCC(=O)NCCC[C@@H](NC(=O)[C@@H](N)Cc2ccc(O)cc2)C(=O)N[C@@H](Cc2ccccc2)C(=O)N1 (H-Y[dOrn]FE-NH2; lactam 2-4)
- Ki [13]: 3.21 nM
- Ki (Mu-type opioid receptor [14]): 0.98 nM

Source: ChEMBL document CHEMBL5257037, “Side Chain Cyclized Aromatic Amino Acids: Great Tools as Local Constraints in Peptide and Peptidomimetic Design” (J Med Chem, 2016)
